Patent US8716292B2, “Riminophenazines with 2-(heteroaryl)amino substituents and their anti-microbial activity” (priority 2010, dated 2014)
Values after ≈ are worked out from the molar mass of the structure shown.

Each molecule was assayed on Mycobacterium tuberculosis H37Rv strains (assay: In vitro assay for antimicrobial susceptibility (microplate Alamar blue MIC)). Settings: Mycobacterium tuberculosis, H37RV, 7H9, Alamar blue, inhibition ≧90%; read-out: MIC (μg/mL) against H37Rv.
Type: cell-based

Q: With `N#Cc1cccnc1Nc1cc2nc3ccccc3n(-c3ccc(F)cc3)c-2c/c1=N\C1CCOCC1` [TBI-1086, 5-(4-Fluorophenyl)-3-(4-tetrahydropyranyl)imino-2-(3-cyano-2-pyridyl)amino-3,5-dihydrophenazine] as the molecule, how does the MIC read?
A: 0.04 µg/mL (≈ 0.0815 µM)

Same assay, conditions: Mycobacterium tuberculosis, H37RV, in vitro, Mycobacterium tuberculosis H37Rv strains; read-out: MIC (μg/mL) against H37Rv

Q: How did the MIC turn out when `COC1CCC(/N=c2\cc3n(-c4ccc(Cl)c(Cl)c4)c4ccc(F)cc4nc-3cc2Nc2ccc(C)nc2)CC1` (stereo not drawn) [TBI-878, 8-Fluoro-5-(3,4-dichlorophenyl)-3-(4-methoxycyclohexyl)imino-2-(6-methyl-3-pyridinyl)amino-3,5-dihydrophenazine] was run?
A: 0.029 µg/mL (≈ 0.0503 µM)

Q: `COc1ccc2nc3cc(Nc4cccnc4OC)/c(=N/C4CCC4)cc-3n(-c3ccc(Cl)cc3)c2c1` [TBI-895, 7-Methoxy-5-(4-chlorophenyl)-3-cyclobutylimino-2-(2-methoxy-3-pyridyl)amino-3,5-dihydrophenazine] was tested. Which MIC did it give?
A: 0.125 µg/mL (≈ 0.244 µM)

Q: Which MIC does the source give for `Fc1ccc(-n2c3c/c(=N\C4CCN(C5CCCC5)CC4)c(Nc4cccnc4)cc-3nc3ccccc32)cc1` [TBI-684, 5-(4-Fluorophenyl)-3-(N-cyclopentyl-4-piperidyl)imino-2-(3-pyridyl)amino-3,5-dihydrophenazine] here?
A: 0.5 µg/mL (≈ 0.939 µM)

Q: With `COc1ncccc1Nc1cc2nc3ccc(F)cc3n(-c3ccc(OC(F)(F)F)cc3)c-2c/c1=N\C1CC1` [TBI-857] as the molecule, how does the MIC read?
A: 0.045 µg/mL (≈ 0.084 µM)

Q: How did the MIC turn out when `Cc1ccc(-n2c3c/c(=N\C4CCC(O)CC4)c(Nc4cccnc4C)cc-3nc3ccccc32)cc1` (stereo not drawn) [TBI-335, 5-(4-Methylphenyl)-3-(4-hydroxycyclohexyl)imino-2-(2-methyl-3-pyridyl)amino-3,5-dihydrophenazine] was run?
A: 0.336 µg/mL (≈ 0.686 µM)

Q: How did the MIC turn out when `COc1ccc(Nc2cc3nc4ccccc4n(-c4ccccc4)c-3c/c2=N\C2CC2)cn1` [TBI-511, 5-Phenyl-3-cyclopropylimino-2-(6-methoxy-3-pyridyl)amino-3,5-dihydrophenazine] was run?
A: 0.177 µg/mL (≈ 0.408 µM)

Q: For `Cc1ccc(-n2c3c/c(=N\C4CCN(CC(C)C)CC4)c(Nc4ccc(C)nc4)cc-3nc3ccccc32)cc1` [TBI-320, 5-(4-Methylphenyl)-3-(N-isobutyl-4-piperidyl)imino-2-(6-methyl-3-pyridyl)amino-3,5-dihydrophenazine], which MIC is on record?
A: 0.11 µg/mL (≈ 0.207 µM)

Q: How did the MIC turn out when `Cc1ccc(-n2c3c/c(=N\CCN4CCOCC4)c(Nc4cccnc4C)cc-3nc3ccccc32)cc1` [TBI-324, 5-(4-Methylphenyl)-3-(2-morpholinoethyl)imino-2-(2-methyl-3-pyridyl)amino-3,5-dihydrophenazine] was run?
A: 0.12 µg/mL (≈ 0.238 µM)

Q: With `COc1ccc(Nc2cc3nc4ccccc4n(-c4ccc(F)cc4)c-3c/c2=N\C2CC2)cn1` [TBI-931, 5-(4-Fluorophenyl)-3-cyclopropyimino-2-(6-methoxy-3-pyridyl)amino-3,5-dihydrophenazine] as the molecule, how does the MIC read?
A: 0.238 µg/mL (≈ 0.527 µM)

Q: With `COCC(C/N=c1\cc2n(-c3ccc(F)cc3)c3ccccc3nc-2cc1Nc1cccnc1OC)OC` (stereo not drawn) [TBI-1049, 5-(4-Fluorophenyl)-3-(2,3-dimethoxy-1-propyl)imino-2-(2-methoxy-3-pyridyl)amino-3,5-dihydrophenazine] as the molecule, how does the MIC read?
A: 0.162 µg/mL (≈ 0.315 µM)

Q: For `Cc1ncccc1Nc1cc2nc3ccccc3n(-c3ccc(C(F)(F)F)cc3)c-2c/c1=N\C1CCCCC1` [TBI-708, 5-(4-Trifluoromethylphenyl)-3-cyclohexylimino-2-(2-methyl-3-pyridyl)amino-3,5-dihydrophenazine], which MIC is on record?
A: 0.028 µg/mL (≈ 0.0531 µM)

Q: For `Cc1ccc(-n2c3c/c(=N\C4CCOCC4)c(Nc4cccnc4C)cc-3nc3ccccc32)cc1` [TBI-323, 5-(4-Methylphenyl)-3-(4-tetrahydropyranyl)imino-2-(2-methyl-3-pyridyl)amino-3,5-dihydrophenazine], which MIC is on record?
A: 0.057 µg/mL (≈ 0.12 µM)

Q: How did the MIC turn out when `CC(C)CN1CCC(/N=c2\cc3n(-c4ccc(F)cc4)c4ccccc4nc-3cc2Nc2cccnc2)CC1` [TBI-683, 5-(4-Fluorophenyl)-3-(N-isobutyl-4-piperidyl)imino-2-(3-pyridyl)amino-3,5-dihydrophenazine] was run?
A: 0.125 µg/mL (≈ 0.24 µM)

Q: `CC(C)/N=c1\cc2n(-c3ccc(Cl)cc3Cl)c3ccccc3nc-2cc1Nc1cccnc1` [TBI-363, 5-(2,4-Dichlorophenyl)-3-(1-methylethyl)imino-2-(3-pyridyl)amino-3,5-dihydrophenazine] was tested. Which MIC did it give?
A: 0.03 µg/mL (≈ 0.0632 µM)

Q: How did the MIC turn out when `CC(C)/N=c1\cc2n(-c3cccc([S+](C)[O-])c3)c3ccccc3nc-2cc1Nc1cccnc1` (stereo not drawn) [TBI-455, 5-(3-Methylsulfinylphenyl)-3-(1-methylethyl)imino-2-(3-pyridyl)amino-3,5-dihydrophenazine] was run?
A: 0.5 µg/mL (≈ 1.07 µM)

Q: `CC(C)/N=c1\cc2n(-c3ccc(F)c(F)c3)c3ccccc3nc-2cc1Nc1cccnc1` [TBI-525, 5-(3,4-Difluorophenyl)-3-(1-methylethyl)imino-2-(3-pyridyl)amino-3,5-dihydrophenazine] was tested. Which MIC did it give?
A: 0.058 µg/mL (≈ 0.131 µM)

Q: For `COc1ncccc1Nc1cc2nc3ccc(F)cc3n(-c3ccc(Cl)c(Cl)c3)c-2c/c1=N\C1CCC1` [TBI-886, 7-Fluoro-5-(3,4-dichlorophenyl)-3-cyclobutylimino-2-(2-methoxy-3-pyridyl)amino-3,5-dihydrophenazine], which MIC is on record?
A: 0.06 µg/mL (≈ 0.112 µM)

Q: With `Cc1ccc(-n2c3c/c(=N\C4CCCCC4)c(Nc4cncc(C)c4)cc-3nc3ccccc32)cc1` [TBI-329, 5-(4-Methylphenyl)-3-cyclohexylimino-2-(5-methyl-3-pyridyl)amino-3,5-dihydrophenazine] as the molecule, how does the MIC read?
A: 0.092 µg/mL (≈ 0.194 µM)

Q: `Cc1cncc(Nc2cc3nc4ccccc4n(-c4ccc(C(F)(F)F)cc4)c-3c/c2=N\C(C)C)c1` [TBI-721, 5-(4-Trifluoromethylphenyl)-3-(1-methylethyl)imino-2-(5-methyl-3-pyridyl)amino-3,5-dihydrophenazine] was tested. Which MIC did it give?
A: 0.082 µg/mL (≈ 0.168 µM)

Q: For `FC(F)(F)Oc1ccc(-n2c3c/c(=N\C4CCN(C5CCCC5)CC4)c(Nc4cccnc4)cc-3nc3ccccc32)cc1` [TBI-163, 5-(4-Trifluoromethoxyphenyl)-3-(N-cyclopentyl-4-piperidyl)imino-2-(3-pyridyl)amino-3,5-dihydrophenazine], which MIC is on record?
A: 0.06 µg/mL (≈ 0.1 µM)

Q: For `Cc1ccc(Nc2cc3nc4cc(F)ccc4n(-c4ccc(Cl)cc4)c-3c/c2=N\C(C)C)cn1` [TBI-943, 8-Fluoro-5-(4-chlorophenyl)-3-(1-methylethyl)imino-2-(6-methyl-3-pyridyl)amino-3,5-dihydrophenazine], which MIC is on record?
A: 0.06 µg/mL (≈ 0.127 µM)

Q: For `COc1ncccc1Nc1cc2nc3ccccc3n(-c3ccc(Cl)cc3)c-2c/c1=N\C1CCN(CC(C)C)CC1` [TBI-442, 5-(4-Chlorophenyl)-3-(N-isobutyl-4-piperidyl)imino-2-(2-methoxy-3-pyridyl)amino-3,5-dihydrophenazine], which MIC is on record?
A: 0.016 µg/mL (≈ 0.0282 µM)

Q: With `Cc1ccc(-n2c3c/c(=N\C4CCC4)c(Nc4cccnc4)cc-3nc3ccccc32)cc1` [TBI-345, 5-(4-Methylphenyl)-3-cyclobutylimino-2-(3-pyridyl)amino-3,5-dihydrophenazine] as the molecule, how does the MIC read?
A: 0.221 µg/mL (≈ 0.512 µM)

Q: Which MIC does the source give for `COc1ncccc1Nc1cc2nc3ccccc3n(-c3cccc(OC(F)(F)F)c3)c-2c/c1=N\C1CCCCC1` [TBI-1040, 5-(3-Trifluoromethoxyphenyl)-3-cyclohexylimino-2-(2-methoxy-3-pyridyl)amino-3,5-dihydrophenazine] here?
A: 0.086 µg/mL (≈ 0.154 µM)

Q: How did the MIC turn out when `COc1ncccc1Nc1cc2nc3ccccc3n(-c3ccc(F)c(F)c3)c-2c/c1=N\C1CCC1` [TBI-530, 5-(3,4-Difluorophenyl)-3-cyclobutylimino-2-(2-methoxy-3-pyridyl)amino-3,5-dihydrophenazine] was run?
A: 0.04 µg/mL (≈ 0.0827 µM)

Q: For `Cc1ccc(Nc2cc3nc4ccccc4n(-c4ccc(Cl)c(Cl)c4)c-3c/c2=N\C(C)C)cn1` [TBI-353], which MIC is on record?
A: 0.025 µg/mL (≈ 0.0512 µM)
